# Where two headings read alike, the source gives them in different places.
# What was measured:
# Test in all cases: biochemical
# Format in all cases: biochemical
# panel of 391 kinases [1] = target: panel of 391 kinases (Homo sapiens, UniProt Q15418); details: RSK1, MK-28 1 µM, ATP 1 µM
# panel of 391 kinases [2] = target: panel of 391 kinases (Homo sapiens, UniProt P23443); details: p70S6K/RPS6KB1, MK-28 1 µM, ATP 1 µM
# panel of 391 kinases [3] = target: panel of 391 kinases (Homo sapiens, UniProt Q13131); details: compound at 1 µM, single dose in duplicates, 1 µM ATP; for remaining activity at 1 µM: read-out: % Enzyme Activity (relative to DMSO controls)
# panel of 391 kinases [4] = target: panel of 391 kinases (Homo sapiens, UniProt O15111); details: IKKa/CHUK, MK-28 1 µM, ATP 1 µM
# panel of 391 kinases [5] = target: panel of 391 kinases (Homo sapiens, UniProt P41279); details: COT1/MAP3K8, MK-28 1 µM, ATP 1 µM
# panel of 391 kinases [6] = target: panel of 391 kinases (Homo sapiens, UniProt Q13976); details: PKG1a, MK-28 1 µM, ATP 1 µM
# panel of 391 kinases [7] = target: panel of 391 kinases (Homo sapiens, UniProt Q16539); details: P38a/MAPK14, MK-28 1 µM, ATP 1 µM
# panel of 391 kinases [8] = target: panel of 391 kinases (Homo sapiens, UniProt Q9NQU5); details: PAK6, MK-28 1 µM, ATP 1 µM
# panel of 391 kinases [9] = target: panel of 391 kinases (Homo sapiens, UniProt O14578); details: STK21/CIT, MK-28 1 µM, ATP 1 µM
# panel of 391 kinases [10] = target: panel of 391 kinases (Homo sapiens, UniProt Q16654); details: kinase PDK4/PDKH4, compound at 1 µM, single dose in duplicates, 1 µM ATP
# panel of 391 kinases [11] = target: panel of 391 kinases (Homo sapiens, UniProt P07948); details: LYN, MK-28 1 µM, ATP 1 µM
# panel of 391 kinases [12] = target: panel of 391 kinases (Homo sapiens, UniProt O75460); details: ERN1/IRE1, MK-28 1 µM, ATP 1 µM
# panel of 391 kinases [13] = target: panel of 391 kinases (Homo sapiens, UniProt Q9P1W9); details: PIM2, MK-28 1 µM, ATP 1 µM
# panel of 391 kinases [14] = target: panel of 391 kinases (Homo sapiens, UniProt Q7L7X3); details: TAOK1, MK-28 1 µM, ATP 1 µM
# panel of 391 kinases [15] = target: panel of 391 kinases (Homo sapiens, UniProt O95835); details: LATS1, MK-28 1 µM, ATP 1 µM
# panel of 391 kinases [16] = target: panel of 391 kinases (Homo sapiens, UniProt Q9BQI3); details: kinase EIF2AK1, compound at 1 µM, single dose in duplicates, 1 µM ATP
# panel of 391 kinases [17] = target: panel of 391 kinases (Homo sapiens, UniProt P08581); details: c-MET, MK-28 1 µM, ATP 1 µM
# panel of 391 kinases [18] = target: panel of 391 kinases (Homo sapiens, UniProt Q6P2M8); details: CAMK1b, MK-28 1 µM, ATP 1 µM
# panel of 391 kinases [19] = target: panel of 391 kinases (Homo sapiens, UniProt O60285); details: ARK5/NUAK1, MK-28 1 µM, ATP 1 µM
# panel of 391 kinases [20] = target: panel of 391 kinases (Homo sapiens, UniProt Q76MJ5); details: ERN2/IRE2, MK-28 1 µM, ATP 1 µM
# panel of 391 kinases [21] = target: panel of 391 kinases (Homo sapiens, UniProt P51956); details: NEK3, MK-28 1 µM, ATP 1 µM
# panel of 391 kinases [22] = target: panel of 391 kinases (Homo sapiens, UniProt P46734); details: MEK3, MK-28 1 µM, ATP 1 µM
# panel of 391 kinases [23] = target: panel of 391 kinases (Homo sapiens, UniProt Q02750); details: MEK1, MK-28 1 µM, ATP 1 µM
# panel of 391 kinases [24] = target: panel of 391 kinases (Homo sapiens, UniProt O43318); details: TAK1, MK-28 1 µM, ATP 1 µM
# panel of 391 kinases [25] = target: panel of 391 kinases (Homo sapiens, UniProt Q6IQ55); details: TTBK2, MK-28 1 µM, ATP 1 µM
# [26] = read-out: % Enzyme Activity (relative to DMSO controls)
structure (smiles),measurement,setting,value
CN(/N=C\c1ccc(O)c(O)c1)c1nc(-c2ccccc2)cc(-c2ccccc2)n1 [MK-28],% Enzyme Activity (relative to DMSO controls),panel of 391 kinases [1],96.73%
same,remaining activity at 1 µM,panel of 391 kinases [1]; [26],96.8%
same,% Enzyme Activity (relative to DMSO controls),panel of 391 kinases [2],97.34%
same,remaining activity at 1 µM,panel of 391 kinases [2]; [26],99%
same,% Enzyme Activity (relative to DMSO controls),panel of 391 kinases [3]; kinase AMPK(A1/B1/G1),95.82%
same,remaining activity at 1 µM,panel of 391 kinases [3]; kinase AMPK(A1/B1/G1),96.3%
same,% Enzyme Activity (relative to DMSO controls),panel of 391 kinases [3]; kinase AMPK(A1/B1/G2),98.77%
same,remaining activity at 1 µM,panel of 391 kinases [3]; kinase AMPK(A1/B1/G2),101%
same,% Enzyme Activity (relative to DMSO controls),panel of 391 kinases [3]; kinase AMPK(A1/B1/G3),86.51%
same,remaining activity at 1 µM,panel of 391 kinases [3]; kinase AMPK(A1/B1/G3),87%
same,% Enzyme Activity (relative to DMSO controls),panel of 391 kinases [3]; kinase AMPK(A1/B2/G1),106.30%
same,remaining activity at 1 µM,panel of 391 kinases [3]; kinase AMPK(A1/B2/G1),108%
same,% Enzyme Activity (relative to DMSO controls),panel of 391 kinases [4],106.17%
same,remaining activity at 1 µM,panel of 391 kinases [4]; [26],107%
same,% Enzyme Activity (relative to DMSO controls),panel of 391 kinases [5],95.23%
same,remaining activity at 1 µM,panel of 391 kinases [5]; [26],96%
same,% Enzyme Activity (relative to DMSO controls),panel of 391 kinases [6],86.31%
same,remaining activity at 1 µM,panel of 391 kinases [6]; [26],89%
same,% Enzyme Activity (relative to DMSO controls),panel of 391 kinases [7],98.53%
same,remaining activity at 1 µM,panel of 391 kinases [7]; [26],100%
same,% Enzyme Activity (relative to DMSO controls),panel of 391 kinases [8],97.64%
same,remaining activity at 1 µM,panel of 391 kinases [8]; [26],98%
same,% Enzyme Activity (relative to DMSO controls),panel of 391 kinases [9],95.45%
same,remaining activity at 1 µM,panel of 391 kinases [9]; [26],97.6%
same,% Enzyme Activity (relative to DMSO controls),panel of 391 kinases [10],97.96%
same,remaining activity at 1 µM,panel of 391 kinases [10]; [26],98.2%
same,% Enzyme Activity (relative to DMSO controls),panel of 391 kinases [11],96.29%
same,remaining activity at 1 µM,panel of 391 kinases [11]; [26],96.5%
same,% Enzyme Activity (relative to DMSO controls),panel of 391 kinases [12],104.22%
same,remaining activity at 1 µM,panel of 391 kinases [12]; [26],105%
same,% Enzyme Activity (relative to DMSO controls),panel of 391 kinases [13],99.13%
same,remaining activity at 1 µM,panel of 391 kinases [13]; [26],102%
same,% Enzyme Activity (relative to DMSO controls),panel of 391 kinases [14],103.55%
same,remaining activity at 1 µM,panel of 391 kinases [14]; [26],105%
same,% Enzyme Activity (relative to DMSO controls),panel of 391 kinases [15],99.22%
same,remaining activity at 1 µM,panel of 391 kinases [15]; [26],101%
same,% Enzyme Activity (relative to DMSO controls),panel of 391 kinases [16],96.86%
same,remaining activity at 1 µM,panel of 391 kinases [16]; [26],100%
same,% Enzyme Activity (relative to DMSO controls),panel of 391 kinases [17],96.37%
same,remaining activity at 1 µM,panel of 391 kinases [17]; [26],102%
same,% Enzyme Activity (relative to DMSO controls),panel of 391 kinases [18],94.89%
same,remaining activity at 1 µM,panel of 391 kinases [18]; [26],96.9%
same,% Enzyme Activity (relative to DMSO controls),panel of 391 kinases [19],91.19%
same,remaining activity at 1 µM,panel of 391 kinases [19]; [26],93.8%
same,% Enzyme Activity (relative to DMSO controls),panel of 391 kinases [20],97.92%
same,remaining activity at 1 µM,panel of 391 kinases [20]; [26],99.7%
same,% Enzyme Activity (relative to DMSO controls),panel of 391 kinases [21],77.47%
same,remaining activity at 1 µM,panel of 391 kinases [21]; [26],79.2%
same,% Enzyme Activity (relative to DMSO controls),panel of 391 kinases [22],88.71%
same,remaining activity at 1 µM,panel of 391 kinases [22]; [26],96.2%
same,% Enzyme Activity (relative to DMSO controls),panel of 391 kinases [23],99.18%
same,remaining activity at 1 µM,panel of 391 kinases [23]; [26],100%
same,% Enzyme Activity (relative to DMSO controls),panel of 391 kinases [24],97.66%
same,remaining activity at 1 µM,panel of 391 kinases [24]; [26],97.9%
same,% Enzyme Activity (relative to DMSO controls),panel of 391 kinases [25],97.38%
same,remaining activity at 1 µM,panel of 391 kinases [25]; [26],98.9%
